Here are results for one compound from PMC12036814 (Angewandte Chemie (International Ed. in English), 2025).

Test [1] relates to HEK‐293 and PDL‐hTERT cells. Briefly: MTT assay, relative metabolic activity after 3 days. The following applies: 3 days of treatment. The test is classed as cell-based, human. The protocol: Methods and Experimental Procedures
(Alfa Aesar, Haverhill, USA, Cat# J66943 ) stocks were prepared in sterile -filtered 0.1 N HCl to a
maximum concentration of 50 mM. HCl was used as vehicle control, diluted in culture medium, and
Cell culture experiments were performed in HEK 293, A549 or PDL-hTERT cells1 cultured in DMEM high
glucose medium supplemented with 10% FCS and 2 mM glutamine ( all, Sigma-Aldrich, St. Louis, USA,
Cat# G7513) in 5% CO2 atmosphere at 37 °C in Heracell 150i incubators (Thermo Fisher Scientific,
Waltham, USA). The human periodontal ligament (PDL -hTERT) cell line was provided by Prof. Denitsa
Docheva. During standard cell passaging accutase (Sigma-Aldrich) or 2,5x trypsin/0.5% EDTA in PBS
(Capricorn Scientific, Ebsdorfergrund, Germany) was used for cell detachment. Cell dishes in various
sizes (10 cm, 15 cm) and flasks (T75, T175) were used for cultivation (Sarstedt, Nümbrecht, Germany,
purchased from Thermo Fisher Scientific, Waltham, USA, Cat# 130184, 130188.
HEK or PDL-hTERT cells (1,5 x 10^3 cells/well) were seeded into 96 -well plates and grown for 24 h. […]
removed by suction and the formed formazan crystals dissolved in 200 μL DMSO. The read-out was
performed with an Infinite M200 Pro microplate reader (Tecan, Männedorf, Switzerland) at 570 nm
and background was subtracted at 630 nm. The absorbance values were normalized to DMSO/0.1 N […]

Test [2] concerns AIFM1 knockout HEK293 cells. As to the kind of experiment: Whole proteome analysis of AIFM1 knockout HEK293 cells. The test is classed as cell-based, human. Details: dose or concentration left out as unconfirmed. Conditions: […] μM, 3 days, versus vehicle-treated AIFM1 knockout cells.
The target in test [3] is T1, SCARB1 (Homo sapiens, UniProt Q8WTV0).
T1 construct: purchased Hölzel Biotech SC1-H82E5
T1 sequence (Q8WTV0 1-552): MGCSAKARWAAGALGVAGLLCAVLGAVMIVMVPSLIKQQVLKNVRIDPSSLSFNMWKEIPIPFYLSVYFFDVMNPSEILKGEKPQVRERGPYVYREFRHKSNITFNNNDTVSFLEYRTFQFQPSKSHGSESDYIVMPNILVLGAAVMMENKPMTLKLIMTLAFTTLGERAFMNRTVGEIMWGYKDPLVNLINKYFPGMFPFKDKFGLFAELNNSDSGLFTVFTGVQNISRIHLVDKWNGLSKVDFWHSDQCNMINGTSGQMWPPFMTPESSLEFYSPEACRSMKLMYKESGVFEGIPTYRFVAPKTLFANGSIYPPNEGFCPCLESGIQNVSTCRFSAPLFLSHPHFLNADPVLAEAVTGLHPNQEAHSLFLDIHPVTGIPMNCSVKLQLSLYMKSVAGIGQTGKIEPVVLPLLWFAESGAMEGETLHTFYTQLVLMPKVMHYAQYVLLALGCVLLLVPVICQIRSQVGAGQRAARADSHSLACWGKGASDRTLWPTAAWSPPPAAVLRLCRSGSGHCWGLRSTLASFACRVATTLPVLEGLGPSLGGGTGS
Briefly: Microscale thermophoresis (MST) binding. Conditions: aggregation/precipitation at high compound concentrations. The protocol: reaction was terminated by addition of 800 μL EtOAc+0.5% AcOH, 300 μL H2O and 100 μL internal standard (13,14-dihydro-15-ketoprostaglandin -d4, 300 pmol/sample, Cayman Chemical, Ann Arbor, USA, Cat# 10010606). Of the organic phase 600 μL was transferred into a fresh Eppendorf tube and the solvent removed in a SpeedVac. The residue was dissolved in 100 μL acetonitrile/ H2O (1:1) and measured with LC-MS/MS. Gradient: Solvent A = H2O + 0.1% formic acid, solvent B = acetonitrile + 0.5% formic acid, flow rate = 0 .4 mL/min, run length 6 min, gradient = 0 min 30% B, 1 min 30% B, 2 min 31.5% B, 2.1 min 95% B, 4 min 95% B, 4.1 min 30% B, 6 min 30% B. MS settings: Capillary = 3.0 kV, sampling cone = […], extraction cone […], source temperature = 100 °C, desolvat ion temperature = 350 °C, cone gas flow = 50.0 L/h, desolvation gas flow = 650.0 L/h, scan time = 0.250 s, inter-scan time = 0.020 s, mass range = 100 -800 Da. Masses of 15 -ketoprostaglandin (349.2 Da, collision energy = 21.0 eV), 13,14 -dihydro-15-ketoprostaglandin (351.2 Da, collision energy = 18.0 eV) and 13,14-dihydro-15-ketoprostaglandin (355.2 Da, collision energy = 10.0 eV) were set for MRM. The areas under the curve (AUC) were used to quantify 15 -keto-PGE2 and 13,14 -dihydro-15-keto-PGE2 levels by determining peak areas in relation to internal standard […]. The experiment was […]
Microscale thermophoresis (MST) was performed as follows: Monolith His -Tag Labeling Kit RED -tris-NTA 2nd Generation (NanoTemper Technologies, Munich, Germany, Cat# MO -L018) was used for KD determination as recommended by the purchaser. Briefly, SCARB1 ( Hölzel Biotech, Cologne, Germany, Cat# SC1-H82E5) concentration (50 nM) was adjusted in assay buffer and labelled by the RED -tris-NTA dye (100 nM). This mixture was added to compound dilution series (c = 1 mM to 30 nM) and measured using Monolith NT.115 (NanoTemper Technologies, Munich, Germany ). The experiment was performed once and analysed with the MO Affinity Analysis software (NanoTemper).
NUDT1 target validation efforts:
Recombinant NUDT1 expression & purification […]
For orientation: In MST a laser heats a spot of the sample, and binding alters the fluorescence response.

On to `O=C(O)c1cn(C2CC2)c2cc(N3CCNCC3)c(F)cc2c1=O` [Ciprofloxacin], for which, in test [1], the “approximate apparent IC50 (metabolic activity, MTT)” value is “well above the reported plasma concentrations”. For the same compound, the “regulation of ETC subunits in AIFM1 knockout cells” value in test [2] is “only minor additional alterations of ETC subunits”. The “binding to SCARB1” value in test [3] is on record as “no binding affinity could be determined”.
